Where “and” joins values, the source holds several entries; their conditions need not be identical. Identical values can stand only once.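 Test compounds were applied to cells in 96-well plates for 48 hours at 5 doses. GI50 is the concentration that inhibits growth by half. TGI denotes the concentration required for complete inhibition of growth.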
Columns and labels:
Assay in all cases: DTP human tumour cell line panel, 48 h
[1] = tested on: IGROV1 ovarian
[2] = tested on: EKVX NSCLC
[3] = tested on: HCC-2998 colon
[4] = tested on: SK-MEL-2 melanoma
[5] = tested on: UACC-257 melanoma
[6] = tested on: BT-549 breast
[7] = tested on: PC-3 prostate
[8] = tested on: SW-620 colon
[9] = tested on: HT29 colon
[10] = tested on: HL-60(TB) leukemia
[11] = tested on: NCI-H460 lung
[12] = tested on: NCI/ADR-RES ovarian
[13] = tested on: OVCAR-4 ovarian
[14] = tested on: SF-268 CNS
[15] = tested on: MALME-3M melanoma
[16] = tested on: SK-OV-3 ovarian
[17] = tested on: NCI-H522 lung
[18] = tested on: OVCAR-8 ovarian
[19] = tested on: HOP-92 NSCLC
[20] = tested on: K-562 leukemia
[21] = tested on: COLO 205 colon
[22] = tested on: OVCAR-5 ovarian
[23] = tested on: UACC-62 melanoma
[24] = tested on: 786-0 renal
[25] = tested on: U251 CNS
[26] = tested on: ACHN renal
[27] = tested on: MOLT-4 leukemia
[28] = tested on: HCT-15 colon
[29] = tested on: SNB-75 CNS
[30] = tested on: SF-295 CNS
[31] = tested on: RPMI-8226 leukemia
[32] = tested on: OVCAR-3 ovarian
[33] = tested on: SR leukemia
[34] = tested on: UO-31 renal
[35] = tested on: KM12 colon
[36] = tested on: HCT-116 colon
[37] = tested on: DU-145 prostate
[38] = tested on: HS 578T breast
[39] = tested on: A498 renal
[40] = tested on: MCF7 breast
[41] = tested on: LOX IMVI melanoma
[42] = tested on: SK-MEL-5 melanoma
[43] = tested on: CAKI-1 renal
[44] = tested on: HOP-62 NSCLC
[45] = tested on: CCRF-CEM leukemia
[46] = tested on: MDA-MB-231 breast
[47] = tested on: MDA-MB-435
[48] = tested on: SNB-19 CNS
[49] = tested on: RXF 393 renal
[50] = tested on: SK-MEL-28 melanoma
[51] = tested on: NCI-H226 lung
[52] = tested on: TK-10 renal
[53] = tested on: M14 melanoma
[54] = tested on: NCI-H23 lung
[55] = tested on: MDA-N
[56] = tested on: SF-539 CNS
[57] = tested on: T-47D breast
[58] = tested on: A549 NSCLC
[59] = tested on: SN12C renal
[60] = tested on: SNB-78 CNS
[61] = tested on: HOP-18 NSCLC
[62] = tested on: DLD-1 colon
[63] = tested on: LXFL 529 NSCLC
[64] = tested on: DMS 114 small cell lung
[65] = tested on: DMS 273 small cell lung
[66] = tested on: XF 498 CNS

Compound: N=C(N)SCCc1ccccn1
- TGI [1]: > 100 µM
- TGI [2]: > 100 µM
- TGI [3]: > 100 µM
- TGI [4]: > 100 µM
- TGI [5]: > 100 µM
- TGI [6]: > 100 µM
- TGI [7]: > 100 µM
- TGI [8]: > 100 µM
- TGI [9]: > 100 µM
- TGI [10]: > 100 µM
- TGI [11]: > 100 µM
- TGI [12]: > 100 µM
- TGI [13]: > 100 µM
- TGI [14]: > 100 µM
- TGI [15]: > 100 µM
- TGI [16]: > 100 µM
- TGI [17]: > 100 µM
- TGI [18]: > 100 µM
- TGI [19]: > 100 µM
- TGI [20]: > 100 µM
- TGI [21]: > 100 µM
- TGI [22]: > 100 µM
- TGI [23]: > 100 µM
- TGI [24]: > 100 µM
- TGI [25]: > 100 µM
- TGI [26]: > 100 µM
- TGI [27]: > 100 µM
- TGI [28]: > 100 µM
- GI50 [29]: 39.7 µM and > 100 µM
- TGI [29]: > 100 µM
- TGI [30]: > 100 µM
- TGI [31]: > 100 µM
- TGI [32]: > 100 µM
- TGI [33]: > 100 µM
- TGI [34]: > 100 µM
- TGI [35]: > 100 µM
- TGI [36]: > 100 µM
- TGI [37]: > 100 µM
- TGI [38]: > 100 µM
- GI50 [39]: 37.8 µM and > 100 µM
- TGI [39]: > 100 µM
- TGI [40]: > 100 µM
- TGI [41]: > 100 µM
- TGI [42]: > 100 µM
- TGI [43]: > 100 µM
- TGI [44]: > 100 µM
- TGI [45]: > 100 µM
- TGI [46]: > 100 µM
- TGI [47]: > 100 µM
- TGI [48]: > 100 µM
- TGI [49]: > 100 µM
- TGI [50]: > 100 µM
- TGI [51]: > 100 µM
- TGI [52]: > 100 µM
- TGI [53]: > 100 µM
- GI50 [54]: 35.5 µM and > 100 µM
- TGI [54]: > 100 µM
- TGI [55]: > 100 µM
- TGI [56]: > 100 µM
- TGI [57]: > 100 µM
- TGI [58]: > 100 µM
- TGI [59]: > 100 µM

Compound: NCP(=O)(O)OCC(=O)O
- TGI [60]: > 100 µM
- TGI [1]: > 100 µM
- TGI [2]: > 100 µM
- TGI [4]: > 100 µM
- TGI [5]: > 100 µM
- TGI [61]: > 100 µM
- TGI [62]: > 100 µM
- TGI [8]: > 100 µM
- TGI [9]: > 100 µM
- TGI [10]: > 100 µM
- TGI [11]: > 100 µM
- TGI [13]: > 100 µM
- TGI [14]: > 100 µM
- TGI [15]: > 100 µM
- TGI [16]: > 100 µM
- TGI [17]: > 100 µM
- TGI [18]: > 100 µM
- TGI [19]: > 100 µM
- TGI [20]: > 100 µM
- TGI [21]: > 100 µM
- TGI [22]: > 100 µM
- TGI [23]: > 100 µM
- TGI [24]: > 100 µM
- TGI [25]: > 100 µM
- TGI [26]: > 100 µM
- TGI [27]: > 100 µM
- TGI [63]: > 100 µM
- TGI [28]: > 100 µM
- TGI [64]: > 100 µM
- TGI [29]: > 100 µM
- TGI [30]: > 100 µM
- TGI [32]: > 100 µM
- TGI [65]: > 100 µM
- TGI [33]: > 100 µM
- TGI [34]: > 100 µM
- TGI [35]: > 100 µM
- TGI [36]: > 100 µM
- TGI [66]: > 100 µM
- TGI [39]: > 100 µM
- TGI [41]: > 100 µM
- TGI [42]: > 100 µM
- TGI [43]: > 100 µM
- TGI [44]: > 100 µM
- TGI [45]: > 100 µM
- TGI [48]: > 100 µM
- TGI [49]: > 100 µM
- TGI [50]: > 100 µM
- TGI [52]: > 100 µM
- TGI [53]: > 100 µM
- TGI [54]: > 100 µM
- TGI [56]: > 100 µM
- TGI [58]: > 100 µM
- TGI [59]: > 100 µM
